# Key:
# Experiment in all cases: GRmax, 72 h; higher = less effect;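 also: breast cell lines in 384-well plates, nine doses across a 10^4 range, Dye Drop imaging of viable cells vs DMSO and time-zero plates, GR 0 means no net growth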
# [1] = system: MCF10A
# [2] = system: MDAMB330
# [3] = system: SUM159
# [4] = system: MCF12A
# [5] = system: HCC1143
# [6] = system: MDAMB415
# [7] = system: MDAMB468
# [8] = system: SUM52PE
# [9] = system: PDXHCI002
# [10] = system: BT20
# [11] = system: AU565
# [12] = system: BT474
# [13] = system: MGH312
SMILES,"GRmax, 72 h [1] [GR]","GRmax, 72 h [2] [GR]","GRmax, 72 h [3] [GR]","GRmax, 72 h [4] [GR]","GRmax, 72 h [5] [GR]","GRmax, 72 h [6] [GR]","GRmax, 72 h [7] [GR]","GRmax, 72 h [8] [GR]","GRmax, 72 h [9] [GR]","GRmax, 72 h [10] [GR]","GRmax, 72 h [11] [GR]","GRmax, 72 h [12] [GR]","GRmax, 72 h [13] [GR]","GRmax, 72 h ([1]; main component drawn) [GR]","GRmax, 72 h ([3]; main component drawn) [GR]","GRmax, 72 h ([5]; main component drawn) [GR]","GRmax, 72 h ([7]; main component drawn) [GR]","GRmax, 72 h ([9]; main component drawn) [GR]","GRmax, 72 h ([10]; main component drawn) [GR]"
CNc1nc(-c2ccc3c(N)n[nH]c3c2)cc(N2C[C@@H](C(=O)NC3CCCCC3)CC[C@H]2C)n1 (max 10 µM),0.918,-0.738,0.6,0.8,0.742,0.0477,0.531,0.386,0.867,0.68,0.391,0.151,-0.599,,,,,,
CCOc1cc2ncc(C#N)c(Nc3ccc(OCc4ccccn4)c(Cl)c3)c2cc1NC(=O)/C=C/CN(C)C [Neratinib/HKI272] (max 3.162 µM),0.0959,-0.655,0.51,0.103,0.0791,0.0922,-0.383,0.491,-0.161,0.303,-0.638,-0.919,-0.278,,,,,,
Cc1cc(C(C)Nc2ccccc2)c2nc(N3CCOCC3)cc(=O)n2c1 (stereo not given) [TGX221] (max 10 µM),0.951,0.858,1.02,1.05,0.918,0.184,0.723,0.755,0.855,1.02,0.607,0.524,-0.158,,,,,,
CN(C)C/C=C/C(=O)Nc1ccc(C(=O)Nc2cccc(Nc3cc(-c4c[nH]c5ccccc45)ncn3)c2)cc1 [THZ-P1-2] (max 10 µM),-0.181,-0.777,-0.394,0.364,-0.404,-0.513,-0.523,-0.598,0.721,-0.623,-0.648,-0.697,-0.983,,,,,,
Cc1c(N)nc([C@H](CC(N)=O)NC[C@H](N)C(N)=O)nc1C(=O)N[C@H](C(=O)N[C@H](C)[C@@H](O)[C@H](C)C(=O)N[C@H](C(=O)NCCc1nc(-c2nc(C(=O)NCCC[S+](C)C)cs2)cs1)[C@@H](C)O)[C@@H](OC1OC(CO)C(O)C(O)C1OC1OC(CO)C(O)C(OC(N)=O)C1O)c1cnc[nH]1 (stereo not given in full) [Bleomycin] (max 10 µM),,,,,,,,,,,,,,0.0378,-0.21,-0.208,-0.21,-0.12,-0.129
NC1(C(=O)N[C@@H](CCO)c2ccc(Cl)cc2)CCN(c2nc[nH]c3nccc2-3)CC1 [AZD5363] (max 10 µM),0.805,-0.643,0.444,0.617,0.769,-0.529,0.545,0.18,1.08,0.229,0.373,0.0474,-0.905,,,,,,
COc1cc2nccc(Oc3ccc(NC(=O)C4(C(=O)Nc5ccc(F)cc5)CC4)cc3)c2cc1OC [Cabozantinib] (max 10 µM),0.843,0.743,0.257,0.96,0.512,0.412,0.423,0.0751,0.234,-0.203,0.312,0.647,0.332,,,,,,
CN1CCN(CCOc2cc(OC3CCOCC3)c3c(Nc4c(Cl)ccc5c4OCO5)ncnc3c2)CC1 [Saracatinib/AZD0530] (max 10 µM),0.148,0.0209,0.723,0.414,0.388,0.324,0.178,0.486,0.0015,0.31,0.147,-0.548,-0.401,,,,,,
CN(C)C/C=C/C(=O)Nc1ccc(C(=O)N2CCC[C@@H](Nc3ncc(Cl)c(-c4c[nH]c5ccccc45)n3)C2)cc1 [THZ531] (max 1 µM),-0.625,-0.968,0.627,-0.0737,-0.23,-0.344,-0.153,-0.17,-0.198,0.637,-0.527,-0.861,-0.947,,,,,,
O=C(CCCCCCC(=O)Nc1ccccc1)NO [Vorinostat] (max 10 µM),0.0566,-0.872,0.181,0.318,-0.253,-0.503,-0.119,0.0882,-0.583,-0.113,-0.491,-0.924,-0.945,,,,,,
CO[C@H]1C[C@@H]2CC[C@@H](C)[C@@](O)(O2)C(=O)C(=O)N2CCCC[C@H]2C(=O)O[C@H]([C@H](C)C[C@@H]2CC[C@@H](OCCO)[C@H](OC)C2)CC(=O)[C@H](C)/C=C(\C)[C@@H](O)[C@@H](OC)C(=O)[C@H](C)C[C@H](C)/C=C/C=C/C=C/1C [Everolimus] (max 10 µM),0.789,-0.378,0.866,0.571,0.557,0.0852,0.527,0.553,0.987,0.39,0.4,0.14,0.148,,,,,,
CN(C)C(=O)c1cc2cnc(Nc3ccc(N4CCNCC4)cn3)nc2n1C1CCCC1 [LEE011/Ribociclib] (max 10 µM),0.434,0.157,0.436,0.789,0.298,0.231,0.947,0.528,0.508,0.092,0.244,0.583,0.894,,,,,,
CCNC(=O)c1noc(-c2cc(C(C)C)c(O)cc2O)c1-c1ccc(CN2CCOCC2)cc1 [Luminespib/NVP-AUY922] (max 1 µM),-0.172,-0.344,-0.0637,-0.316,-0.192,-0.305,-0.174,-0.0956,-0.281,-0.049,-0.231,-0.505,-0.685,,,,,,
COc1ccc2c(c1)[C@]1(C[C@H]1c1ccc3c(/C=C/c4ccc(CN5C[C@@H](C)O[C@@H](C)C5)cc4)n[nH]c3c1)C(=O)N2,-0.0342,0.284,-0.119,0.0038,0.0518,0.157,-0.38,0.121,0.107,-0.231,-0.165,0.18,-0.28,,,,,,
CCc1cncnc1N1CCN(Cc2nc3ccc(C(F)(F)F)cc3[nH]2)CC1 (max 10 µM),0.721,0.621,0.846,0.964,0.739,0.431,0.0813,0.446,0.873,0.66,0.476,0.508,0.311,,,,,,
CC(C)Nc1cc(-c2c[nH]c(C(=O)N[C@H](CO)c3cccc(Cl)c3)c2)c(Cl)cn1 [BVD523] (max 10 µM),0.185,0.356,0.156,0.104,0.0829,0.533,0.402,0.315,0.286,0.463,0.521,0.977,0.914,,,,,,

SMILES,"GRmax, 72 h [1] [GR]","GRmax, 72 h [2] [GR]","GRmax, 72 h [3] [GR]","GRmax, 72 h [4] [GR]","GRmax, 72 h [5] [GR]","GRmax, 72 h [6] [GR]","GRmax, 72 h [7] [GR]","GRmax, 72 h [8] [GR]","GRmax, 72 h [9] [GR]","GRmax, 72 h [10] [GR]","GRmax, 72 h [11] [GR]","GRmax, 72 h [12] [GR]","GRmax, 72 h [13] [GR]","GRmax, 72 h ([1]; main component drawn) [GR]","GRmax, 72 h ([3]; main component drawn) [GR]","GRmax, 72 h ([5]; main component drawn) [GR]","GRmax, 72 h ([7]; main component drawn) [GR]","GRmax, 72 h ([9]; main component drawn) [GR]","GRmax, 72 h ([10]; main component drawn) [GR]"
CC(=O)Nc1cccc(-n2c(=O)n(C3CC3)c(=O)c3c(Nc4ccc(I)cc4F)n(C)c(=O)c(C)c32)c1 (max 1 µM),0.225,0.251,0.404,-0.0287,-0.0225,0.285,0.407,0.577,0.642,0.503,1.01,1.36,1.12,,,,,,
CC(=O)c1c(C)c2cnc(Nc3ccc(N4CCNCC4)cn3)nc2n(C2CCCC2)c1=O (max 3.162 µM),0.454,0.207,0.45,0.684,0.282,0.117,1.05,0.346,0.277,0.162,0.177,0.519,1.03,,,,,,
COc1cccc2c1C(=O)c1c(O)c3c(c(O)c1C2=O)C[C@@](O)(C(=O)CO)C[C@@H]3O[C@H]1C[C@H](N)[C@H](O)[C@H](C)O1 [Doxorubicin] (max 3.162 µM),-0.324,-0.205,-0.361,-0.138,-0.251,-0.423,-0.339,-0.0432,-0.654,-0.481,-0.452,-0.605,-0.963,,,,,,
COc1cc([C@@H]2c3cc4c(cc3[C@@H](O[C@@H]3O[C@@H]5CO[C@@H](C)O[C@H]5[C@H](O)[C@H]3O)[C@H]3COC(=O)[C@H]23)OCO4)cc(OC)c1O [Etoposide] (max 10 µM),-0.0699,,-0.279,,-0.166,,-0.513,,-0.179,-0.383,,,,,,,,,
CCC(=O)Nc1ccc(C(=O)Nc2ccc(Nc3ncc4c(n3)N(C)c3ccc(C)cc3C(=O)N4C)cc2)cc1 [FMF-03-145-1],-0.0249,-0.0541,-0.12,0.0223,0.09,0.0653,-0.46,0.0118,-0.102,-0.201,-0.153,-0.227,-0.365,,,,,,
C=CCn1c(=O)c2cnc(Nc3ccc(N4CCN(C)CC4)cc3)nc2n1-c1cccc(C(C)(C)O)n1 [AZD1775] (max 10 µM),0.0997,-0.234,-0.152,-0.21,-0.458,-0.186,-0.492,-0.226,-0.347,-0.677,-0.485,-0.398,-0.873,,,,,,
CC(=O)O[C@H]1C(=O)[C@@]2(C)[C@H]([C@H](OC(=O)c3ccccc3)[C@]3(O)C[C@H](OC(=O)[C@H](O)[C@@H](NC(=O)c4ccccc4)c4ccccc4)C(C)=C1C3(C)C)[C@]1(OC(C)=O)CO[C@@H]1C[C@@H]2O [Paclitaxel] (max 1 µM),-0.126,-0.438,-0.201,-0.124,-0.335,-0.344,-0.522,-0.401,-0.512,-0.576,-0.498,-0.636,-0.508,,,,,,
CCCCOc1c(C(=O)c2c(F)cc(C)cc2F)c[nH]c2nncc1-2 (max 10 µM),0.0637,0.129,0.26,0.338,-0.0529,0.24,-0.112,0.299,0.217,-0.105,-0.158,0.503,0.0975,,,,,,
C[C@@H]1COCCN1c1cc(C2([S@](C)(=N)=O)CC2)nc(-c2cc[nH]c3nccc2-3)n1 [AZD6738] (max 10 µM),0.442,0.12,0.497,-0.0672,-0.0627,0.522,0.529,-0.174,0.734,0.187,0.312,0.267,0.348,,,,,,
CC[C@@]1(O)C(=O)OCc2c1cc1n(c2=O)Cc2cc3c(CN(C)C)c(O)ccc3nc2-1 [Topotecan] (max 10 µM),-0.2,,-0.454,,-0.43,,-0.658,,-0.701,-0.641,,,,,,,,,
CCN1CCN(Cc2ccc(Nc3ncc(F)c(-c4cc(F)c5nc(C)n(C(C)C)c5c4)n3)nc2)CC1 (max 10 µM),0.151,-0.0152,-0.0575,0.393,-0.0787,-0.0085,-0.288,0.332,-0.677,-0.216,-0.321,0.301,-0.461,,,,,,
Cc1cc(Nc2ncc(Cl)c(Nc3ccccc3S(=O)(=O)C(C)C)n2)c(OC(C)C)cc1C1CCNCC1 [Ceritinib/LDK378] (max 10 µM),-0.319,0.152,-0.487,0.172,-0.422,-0.975,-0.742,0.559,-0.634,-0.737,0.498,1.18,-0.156,,,,,,
COc1cc2c(Oc3ccc4[nH]c(C)cc4c3F)ncnc2cc1OCCCN1CCCC1 [Cediranib/AZD2171] (max 10 µM),0.478,-0.529,0.518,0.937,0.0093,-0.208,-0.708,0.21,-0.432,0.221,0.887,0.742,-0.0842,,,,,,
CNCc1ccc(-c2[nH]c3cc(F)cc4c3c2CCNC4=O)cc1 [Rucaparib] (max 10 µM),0.874,0.423,0.799,0.825,0.785,0.642,0.345,0.961,0.516,0.875,0.718,0.852,0.569,,,,,,
N.N.[Cl][Pt][Cl] [Cisplatin] (max 10 µM),0.379,,0.0896,,0.0754,,-0.287,,-0.0985,-0.337,,,,,,,,,
